Patent EP2272817A1, “PAI-1 INHIBITOR” (Institute of Medicinal Molecular Design, Inc., priority 2008, dated 2009)
Like-named read-outs stand apart in the source and are kept apart here.

Experiments:
[1] = biological target: T1, recombinant human PAI-1 (Homo sapiens, UniProt P05121); test: biochemical
[2] = biological target: T2, recombinant rat PAI-1 (Rattus norvegicus, UniProt P20961); test: biochemical; conditions: read-out: Inhibition Rate of PAI-1 Activity (%)
T2 sequence (P20961 24-402): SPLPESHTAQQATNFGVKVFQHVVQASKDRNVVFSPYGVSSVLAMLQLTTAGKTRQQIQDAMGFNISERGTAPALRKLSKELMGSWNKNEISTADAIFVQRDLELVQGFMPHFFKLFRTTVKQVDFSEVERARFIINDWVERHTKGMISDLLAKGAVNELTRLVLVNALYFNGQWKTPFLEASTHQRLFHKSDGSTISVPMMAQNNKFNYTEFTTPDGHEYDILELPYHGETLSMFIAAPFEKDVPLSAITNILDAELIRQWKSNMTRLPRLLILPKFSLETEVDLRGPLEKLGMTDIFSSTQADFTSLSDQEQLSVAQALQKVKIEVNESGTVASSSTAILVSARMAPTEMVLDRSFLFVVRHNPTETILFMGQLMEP

[3] = biological target: T1, recombinant human PAI-1; test: Test Example 2: Human PAI-1 Inhibitory Activity (pH 7.4 HEPES buffer, 10 minutes incubation with two-chain tPA); assay type: biochemical; design: purchased Molecular Innovations, Inc; conditions: read-out: Inhibition Rate of PAI-1 Activity (%)
Procedure: 0.1 M HEPES, 0.1 M NaCl. 1 mM EDTA. 0.1 % Polyethylene glycol 8,000 (Hampton Research Corporation),
2 mM Dimethyldecylphoshine oxide [Apo-10] (Fluka Corporation)

[4] = read-out: Inhibition Rate of PAI-1 Activity (%), Compound Concentration 5µM
[5] = read-out: Inhibition Rate of PAI-1 Activity (%), Compound Concentration 10µM
[6] = read-out: Inhibition Rate of PAI-1 Activity (%), Compound Concentration 25µM
[7] = read-out: Inhibition Rate of PAI-1 Activity (%)

T1 sequence (P05121 24-402): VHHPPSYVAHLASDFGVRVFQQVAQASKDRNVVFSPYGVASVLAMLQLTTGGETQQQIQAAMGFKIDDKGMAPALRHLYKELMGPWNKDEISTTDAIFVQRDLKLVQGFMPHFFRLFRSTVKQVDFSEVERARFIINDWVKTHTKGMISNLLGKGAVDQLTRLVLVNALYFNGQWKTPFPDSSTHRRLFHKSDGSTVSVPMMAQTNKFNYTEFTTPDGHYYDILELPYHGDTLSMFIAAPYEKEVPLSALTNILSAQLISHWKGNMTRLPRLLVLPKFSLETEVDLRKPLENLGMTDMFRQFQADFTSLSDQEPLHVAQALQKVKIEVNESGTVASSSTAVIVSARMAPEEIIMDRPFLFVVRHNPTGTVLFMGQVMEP

SMILES	inhibition at 5 µM ([1]; read-out: Inhibition Rate of PAI Activity (%), Compound Concentration 5µM) [%]	inhibition at 10 µM ([1]; read-out: Inhibition Rate of PAI Activity (%), Compound Concentration 10µM) [%]	inhibition at 0.3 µM [2] [%]	inhibition at 1 µM [2] [%]	inhibition at 3 µM [2] [%]	inhibition at 10 µM [2] [%]	inhibition at 0.1 µM [3] [%]	inhibition at 0.3 µM [3] [%]	inhibition at 1 µM [3] [%]	inhibition at 3 µM [3] [%]	inhibition at 5 µM [1, 4] [%]	inhibition at 10 µM [1, 5] [%]	inhibition at 25 µM [1, 6] [%]	inhibition at 5 µM [1, 7] [%]	inhibition at 10 µM [1, 7] [%]	inhibition at 25 µM [1, 7] [%]
CC(C)(C)c1ccc(COc2ccc(-c3ccc(OC(F)(F)F)cc3)cc2CC(=O)O)cc1 [Compound 9]	90	99	0	15	71	96	0	6	25	98	–	–	–	–	–	–
CC(C)c1ccc(Oc2ccc(CCC(=O)O)c(Oc3ccc(C(C)C)cc3)c2)cc1 [Compound 73]	–	–	0	13	75	98	0	6	27	98	30	66	> 99	–	–	–
CC(C)(C)c1ccc(COc2cc(-c3ccc(OC(F)(F)F)cc3)ccc2CCC(=O)O)cc1 [Compound 76]	–	–	0	6	56	86	10	12	37	99	–	–	–	24	54	98
CC(C)(C)c1ccc(COc2cccc(Oc3ccc(OC(F)(F)F)cc3)c2CCC(=O)O)cc1 [Compound 86]	–	–	0	12	34	69	0	0	22	87	47	80	98	–	–	–
CC(C)(C)c1ccc(COc2c(CCC(=O)O)cccc2-c2ccc(OC(F)(F)F)cc2)cc1 [Compound 88]	–	–	0	0	51	83	0	5	25	97	–	–	–	42	83	97
CC(C)(C)c1ccc(Oc2cccc(-c3ccc(OC(F)(F)F)cc3)c2CCC(=O)O)cc1 [Compound 94]	–	–	0	15	45	91	0	3	24	96	56	90	97	–	–	–
CC(C)(C)c1ccc(COc2ccc(Oc3ccc(OC(F)(F)F)cc3)cc2CCC(=O)O)cc1 [Compound 96]	–	–	3	14	49	96	6	7	26	96	36	75	99	–	–	–
O=C(O)CCc1c(Oc2ccc(OC(F)(F)F)cc2)cccc1Oc1ccc(OC(F)(F)F)cc1 [Compound 98]	–	–	0	10	39	95	0	2	25	84	57	84	98	–	–	–
CC(C)(C)c1ccc(Oc2cccc(-c3ccc(OC(F)(F)F)cc3)c2OCC(=O)O)cc1 [Compound 113]	–	–	0	9	33	99	0	6	26	73	58	85	97	–	–	–
CC(C)(Oc1cc(-c2ccc(OC(F)(F)F)cc2)ccc1OCCCCc1ccccc1)C(=O)O [Compound 116]	–	–	2	12	43	98	0	0	15	89	–	–	–	56	81	91
CC(C)(C)c1ccc(COc2c(OCC(=O)O)cccc2-c2ccc(OC(F)(F)F)cc2)cc1 [Compound 117]	–	–	0	7	63	94	2	7	46	> 99	63	91	96	–	–	–
CC(C)(C)c1ccc(CN(C(=O)C(=O)O)c2ccc(-c3ccc(OC(F)(F)F)cc3)cc2Cl)cc1 [Compound 147]	–	–	0	14	70	87	0	7	35	99	38	80	92	–	–	–
CC(C)(C)c1ccc(CN(C(=O)C(=O)O)c2cc(C(F)(F)F)ccc2-c2ccc(OC(F)(F)F)cc2)cc1 [Compound 168]	–	–	0	12	81	97	0	0	33	99	63	94	–	–	–	–
CC(C)(C)c1ccc(CN(C(=O)C(=O)O)c2cccc(Oc3ccc(OC(F)(F)F)cc3)c2)cc1 [Compound 172]	–	–	0	6	49	97	4	8	18	76	58	89	94	–	–	–
CC(C)(C)c1ccc(COc2ccc(-c3ccc(OC(F)(F)F)cc3)cc2N(Cc2ccccc2)C(=O)C(=O)O)cc1 [Compound 179]	–	–	7	38	> 99	> 99	1	19	68	> 99	64	91	–	–	–	–
CCCOc1ccc(-c2ccc(OC(F)(F)F)cc2)cc1N(Cc1ccc(C(C)(C)C)cc1)C(=O)C(=O)O [Compound 188]	–	–	0	14	84	> 99	0	0	33	97	73	91	91	–	–	–
CC(C)(C)c1ccc(CN(C(=O)C(=O)O)c2ccc(Cl)cc2-c2ccc(OC(F)(F)F)cc2)cc1 [Compound 192]	–	–	0	8	76	96	0	1	35	> 99	80	95	94	–	–	–
CCCCOc1ccc(N(Cc2ccc(C(C)(C)C)cc2)C(=O)C(=O)O)cc1-c1ccc(OC(F)(F)F)cc1 [Compound 193]	–	–	2	26	81	70	2	5	34	> 99	81	89	–	–	–	–
CC(C)Oc1ccc(N(Cc2ccc(C(C)(C)C)cc2)C(=O)C(=O)O)cc1-c1ccc(OC(F)(F)F)cc1 [Compound 211]	–	–	4	17	78	87	9	16	43	96	–	–	–	87	96	–
CC(C)(Oc1c(Oc2ccc(C(C)(C)C)cc2)cccc1-c1ccc(OC(F)(F)F)cc1)C(=O)O [Compound 251]	–	–	–	–	–	–	0	11	34	83	62	63	–	–	–	–
